Measurements published in patent US20180148418A1, “AMIDO-SUBSTITUTED CYCLOHEXANE DERIVATIVES” (Bayer Pharma Aktiengesellschaft, priority 2015, published 2018).
pIC50: −log10 of the molar value.

Assays:
[1] = target: T1, TNKS1 (Homo sapiens, UniProt O95271); test: TNKS1 Assay B (auto-parsylation, [3H]-NAD+ SPA); type: biochemical; conditions: 6 nM TNKS1, auto-parsylation, over night at room temperature
T1 construct: purchased BPS Bioscience, San Diego, USA 80579 (TNKS1 Histone Ribosylation Assay Kit)
T1 sequence (O95271 1-1327): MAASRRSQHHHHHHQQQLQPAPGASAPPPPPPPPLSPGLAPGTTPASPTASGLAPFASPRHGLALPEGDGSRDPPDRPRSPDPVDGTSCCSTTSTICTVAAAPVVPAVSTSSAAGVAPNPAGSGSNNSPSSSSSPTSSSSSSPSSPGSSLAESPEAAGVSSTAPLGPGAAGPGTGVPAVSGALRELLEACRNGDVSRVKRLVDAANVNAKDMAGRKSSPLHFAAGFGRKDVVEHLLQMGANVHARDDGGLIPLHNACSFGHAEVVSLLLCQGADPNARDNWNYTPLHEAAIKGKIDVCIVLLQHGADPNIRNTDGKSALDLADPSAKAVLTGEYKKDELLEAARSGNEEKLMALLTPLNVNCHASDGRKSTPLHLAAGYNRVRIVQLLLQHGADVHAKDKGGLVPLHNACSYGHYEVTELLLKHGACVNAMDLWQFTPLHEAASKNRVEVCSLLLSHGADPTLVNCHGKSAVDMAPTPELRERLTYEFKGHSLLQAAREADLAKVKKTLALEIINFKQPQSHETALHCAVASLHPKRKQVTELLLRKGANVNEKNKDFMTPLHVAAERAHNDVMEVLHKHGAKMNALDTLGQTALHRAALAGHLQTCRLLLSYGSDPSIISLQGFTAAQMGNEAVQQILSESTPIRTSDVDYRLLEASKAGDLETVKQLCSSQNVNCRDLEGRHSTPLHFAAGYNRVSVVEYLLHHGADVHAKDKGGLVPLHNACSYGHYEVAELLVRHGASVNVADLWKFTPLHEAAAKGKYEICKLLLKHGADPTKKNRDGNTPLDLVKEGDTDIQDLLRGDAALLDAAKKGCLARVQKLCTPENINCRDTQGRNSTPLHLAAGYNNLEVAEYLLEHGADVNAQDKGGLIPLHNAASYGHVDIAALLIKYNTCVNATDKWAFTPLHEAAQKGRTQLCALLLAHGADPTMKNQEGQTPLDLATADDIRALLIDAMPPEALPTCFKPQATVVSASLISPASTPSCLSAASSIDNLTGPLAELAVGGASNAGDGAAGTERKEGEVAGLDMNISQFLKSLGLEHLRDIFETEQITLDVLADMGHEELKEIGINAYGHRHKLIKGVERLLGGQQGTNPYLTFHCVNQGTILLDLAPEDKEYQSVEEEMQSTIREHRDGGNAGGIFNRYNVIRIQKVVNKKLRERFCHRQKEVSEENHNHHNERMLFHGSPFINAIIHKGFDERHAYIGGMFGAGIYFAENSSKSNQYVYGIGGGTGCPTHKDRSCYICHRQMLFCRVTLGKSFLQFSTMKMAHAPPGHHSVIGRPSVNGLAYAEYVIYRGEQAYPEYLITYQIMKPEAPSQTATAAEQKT
Experimental: The potency of selected compounds according to the invention was assessed applying a modified in vitro inhibition assay. Here, the TNKS1 catalyzed NAD^+-dependent ribosylation of the enzyme itself (auto-parsylation) was detected using [^3H]-NAD^+ as substrate and applying the scintillation proximity assay (SPA) method to detect tritium-labeled, parsylated TNKS1. The intensity of the readout signal is proportional to the incorporated [^3H]-NAD^+. Inhibition of TNKS1 leads to a decreased incorporation of [^3H]-NAD^+ and consequently to a lower readout signal intensity. The concentration of a test compound which inhibits the enzyme activity by 50% (corresponds to half of the normed readout signal intensity) is reported as IC50.
Protocol Auto-Parsylation Assay
The assay was conducted in a 96 well MTP format with the identical TNKS1 enzyme sample and NAD^+ sample as in the histone ribosylation assay with the following modifications: TNKS1 enzyme sample was diluted with a modified assay buffer (50 mM MES pH 7.0, 1 mM DTT, 0.01% Triton X-100) to a final concentration of 6 nM TNKS1 and 10×NAD^+ solution was diluted with the modified assay buffer (s. above) to a final 0.445×NAD^+ solution doped with 100 Bq/μl [^3H]-NAD^+[Catalog #NET443H050UC, Perkin Elmer, Waltham, Mass., USA]. Substrate solution (10 μl) was incubated with different test compound concentrations (2.5 ul in 10% DMSO in modified assay buffer) or control (2.5 ul 10% DMSO in modified assay buffer only) and enzyme (10 μl) over night at room temperature. Incorporated tritium was measured after addition of 50 μl SPA beads (1 mg/ml) [Catalog #RPNQ0095 20 mg/ml, Perkin Elmer, Waltham, Mass., USA; diluted 1:10 with Dulbecco's phosphate buffered saline, PBS Catalog #D8537, Sigma-Aldrich, Steinheim, Germany] and detection of the photon emission with a beta count plate reader [Wallac MicroBeta®, Perkin Elmer, Waltham, Mass., USA].

[2] = system: HEK293 cells cotransfected with the FOP control vector; test: HEK293 FOP assay (control reporter with non-functional TCF elements); type: cell-based; conditions: Homo sapiens, 16 hours
Procedure, shortened: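 Stable HEK293 line carrying FOP control reporter (randomized non-functional TCF sites, with pcDNA3), Geneticin-selected, plated 24 h before assay. Stimulated with recombinant human Wnt-3a (2500-5 ng/ml) and compounds 50 μM–15 nM (3.16-fold steps) in CAFTY buffer pH 7.4 with 2 mM Ca2+, 0.01% BSA, run parallel to TOP line.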

[3] = system: wildtype Wnt signaling cascade; test: HEK293 TOP assay (Super TopFlash luciferase reporter, Wnt-3a stimulated); type: cell-based; conditions: Homo sapiens, HEK293, 16 h, HEK293 TOP reporter cells, Wnt3a at EC50, 16 hours
Procedure, shortened: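 HEK293 cells stably carrying Super TopFlash (TOP) run in parallel with FOP cells, 10000/well plated 24 h ahead, stimulated with recombinant human Wnt-3a. Compounds tested 50 μM to 15 nM in 3.16-fold steps in CAFTY buffer pH 7.4 with 2 mM Ca^2+ and 0.01% BSA; luciferase read-out.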

Molecule `O=C(N[C@H]1CC[C@H](C(=O)Nc2cc(N3CCOCC3)ccc2Cl)CC1)c1[nH]cnc1C(=O)N1CC(F)(F)C1` [Example 92, N-(trans-4-{[2-chloro-5-(morpholin-4-yl)phenyl]carbamoyl}cyclohexyl)-4-[(3,3-difluoroazetidin-1-yl)carbonyl]-1H-imidazole-5-carboxamide] has a pIC50 [1] of less than 5.00, a pIC50 [2] of 4.68 and a pIC50 [3] of 5.49.
